Measurements from patent US20110313156A1 (BOEHRINGER INGELHEIM INTERNATIONAL GMBH, priority 2008, published 2011).

Biological target: T1, His6-PDK1 (aa 52-556) (Homo sapiens, UniProt O15530)
T1 construct: 15 μL His6-PDK1 (aa 52-556) 3.33 ng/well); host or cells: baculovirus-infected insect cells
T1 sequence (O15530 52-556): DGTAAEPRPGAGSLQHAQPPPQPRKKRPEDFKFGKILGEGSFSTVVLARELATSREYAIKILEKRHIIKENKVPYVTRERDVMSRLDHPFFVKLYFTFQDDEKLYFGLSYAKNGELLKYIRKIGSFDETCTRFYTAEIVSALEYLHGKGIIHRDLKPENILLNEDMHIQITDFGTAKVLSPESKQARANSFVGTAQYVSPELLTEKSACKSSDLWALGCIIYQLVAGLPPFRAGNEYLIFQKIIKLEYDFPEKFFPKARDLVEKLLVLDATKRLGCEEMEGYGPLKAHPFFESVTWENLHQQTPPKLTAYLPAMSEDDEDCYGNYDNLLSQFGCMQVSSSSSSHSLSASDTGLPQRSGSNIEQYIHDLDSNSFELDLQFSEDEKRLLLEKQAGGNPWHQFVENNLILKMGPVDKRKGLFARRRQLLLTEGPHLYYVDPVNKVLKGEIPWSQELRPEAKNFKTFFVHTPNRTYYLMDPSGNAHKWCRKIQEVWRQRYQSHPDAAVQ
Assay: PDK1 kinase assay III (with Tween 20)
Format: biochemical
Details: compound at 10 μM; PDK1 kinase assay III (values without asterisk); read-out: % CTL (residual activity of the enzyme relative to DMSO control)
Method: Purified enzyme may be obtained for example from the University of Dundee, Scotland.
Another PDK1 assay was developed which by comparison with PDK1 assay 1 additionally contains Tween 20:
The final concentration of Tween 20 is 0.005%.
The reaction is started by adding the ATP solution and the mixture is incubated for 90 min at ambient temperature; at the start of the reaction the dishes are shaken gently. The reaction is stopped by the addition of 50 μL/well of 500 mM phosphoric acid (H3PO4) and incubated for about 20 min at ambient temperature. […] The measured data are evaluated using Graphpad Prism software.
The % CTL values indicate the residual activity of the enzyme after the addition of the inhibitory compound in the solvent DMSO in relation to the enzyme activity in the solvent DMSO without the addition of a compound (control). The majority of the values were determined using the PDK1 kinase assay III described hereinbefore. The values marked with an asterisk (* or**) were determined using the PDK1 kinase assay II described hereinbefore (one asterisk→incubation for 24 h; two asterisks→incubation for 5 min)

Structure (SMILES) | remaining activity at 10 µM [%]
Cc1c(C(=O)NCC#Cc2ccc3nc(Nc4ccc(C(=O)N(C)C5CCN(C)CC5)cc4)ncc3c2)c(=O)n(Cc2ccc(F)c(F)c2)n1C | 12.4
Cc1c(C(=O)NCC#Cc2cc(OCCCN)c3nc(Nc4ccc(N5CCOCC5)cc4)ncc3c2)c(=O)n(Cc2ccc(F)c(F)c2)n1C [III-74] | 13
COCCN(C)C(=O)c1ccc(Nc2ncc3cc(C#CCNC(=O)c4cncn(Cc5ccc(F)c(F)c5)c4=O)ccc3n2)cc1 | 12.2
Cc1c(C(=O)NCC#Cc2ccc3nc(Nc4ccccc4F)ncc3c2)c(=O)n(Cc2ccc(F)c(F)c2)n1C | 17.1
Cc1c(C(=O)NC/C=C/c2ccc3ncncc3c2)c(=O)n(Cc2ccc(F)c(F)c2)n1C [IV-57, 2-(3,4-difluorobenzyl)-1,5-dimethyl-3-oxo-N-[(2E)-3-(quinazolin-6-yl)prop-2-en-1-yl]-2,3-dihydro-1H-pyrazole-4-carboxamide] | 35.5
O=C1Nc2cc(/C=C/CNC(=O)C3CCCN(Cc4ccc(F)c(F)c4)C3=O)ccc2/C1=C/c1cnc[nH]1 (stereo not shown) [I-9, 1-(3,4-difluorobenzyl)-N-{(2E)-3-[(3Z)-3-(1H-imidazol-5-ylmethylidene)-2-oxo-2,3-dihydro-1H-indol-6-yl]prop-2-en-1-yl}-2-oxopiperidine-3-carboxamide] | 25.7
NCCOc1cc(/C=C/CNC(=O)c2cncn(Cc3ccc(F)c(F)c3)c2=O)cc2cnc(Nc3ccccc3)nc12 [III-63] | 14.2

Continued, values first:

remaining activity at 10 µM [%] | Structure (SMILES)
15 | COc1cc(/C=C/CNC(=O)c2cncn(Cc3ccc(F)c(F)c3)c2=O)cc2cnc(Nc3ccc(CN(C)C)cc3)nc12 [IV-18, 1-(3,4-difluorobenzyl)-N-{(2E)-3-[2-({4-[(dimethylamino)methyl]phenyl}amino)-8-methoxyquinazolin-6-yl]prop-2-en-1-yl}-6-oxo-1,6-dihydropyrimidine-5-carboxamide]
14.3 | Cc1c(C(=O)NCC#Cc2ccc3nc(Nc4ccc(N(C)C)cc4)ncc3c2)c(=O)n(Cc2ccc(F)c(F)c2)n1C
24.4 | Cc1c(C(=O)NCC#Cc2ccc3nc(NC(C)C)ncc3c2)c(=O)n(Cc2ccc(F)c(F)c2)n1C
13 | Cc1c(C(=O)NCC#Cc2ccc3c(-c4ccc[nH]4)n[nH]c3c2)c(=O)n(Cc2ccc(F)c(F)c2)n1C [II-1, 2-(3,4-difluorobenzyl)-1,5-dimethyl-3-oxo-N-{3-[3-(1H-pyrrol-2-yl)-1H-indazol-6-yl]prop-2-yn-1-yl}-2,3-dihydro-1H-pyrazole-4-carboxamide]
12.6 | CN1CCC(N(C)c2ccc(Nc3ncc4cc(/C=C/CNC(=O)c5nc(Cl)cn(Cc6ccc(F)c(F)c6)c5=O)ccc4n3)cc2)CC1
11.6 | Cc1c(C(=O)NCC#Cc2ccc3nc(Nc4ccc(C(=O)NC5CCN(C6CC6)CC5)cc4)ncc3c2)c(=O)n(Cc2ccc(F)c(F)c2)n1C
12.4 | CN1CCC(N(C)c2ccc(Nc3ncc4c(F)c(C#CCNC(=O)c5cncn(Cc6ccc(F)c(F)c6)c5=O)ccc4n3)cc2)CC1 [III-26, 1-(3,4-difluorobenzyl)-N-{3-[5-fluoro-2-({4-[methyl(1-methylpiperidin-4-yl)amino]phenyl}amino)quinazolin-6-yl]prop-2-yn-1-yl}-6-oxo-1,6-dihydropyrimidine-5-carboxamide]
15.8 | COCCCN(C)C(=O)c1ccc(Nc2ncc3cc(C#CCNC(=O)c4cncn(Cc5ccc(F)c(F)c5)c4=O)ccc3n2)cc1 [III-104]
16.6 | O=C1Nc2cc(/C=C/CNC(=O)c3cncn(Cc4ccc(F)c(F)c4)c3=O)ccc2/C1=C/c1ncc[nH]1 [I-37, 1-(3,4-difluorobenzyl)-N-{(2E)-3-[(3Z)-3-(1H-imidazol-2-ylmethylidene)-2-oxo-2,3-dihydro-1H-indol-6-yl]prop-2-en-1-yl}-6-oxo-1,6-dihydropyrimidine-5-carboxamide]
